The values that follow come from patent US20110152236A1 (SANOFI-AVENTIS, priority 2008, published 2011).

The structures appear in SMILES notation. Where two headings read alike, the source gives them in different places.

Series [1] has as its target T1, human CB1 receptor (Homo sapiens, UniProt P21554).
T1 construct: U373MG cells naturally expressing the human CB1 receptor; endogenous in cells; host or cells: U373MG cells
Nature of the series: intracellular cyclic AMP test in U373MG cells (HTRF cAMP Dynamic Kit). It counts as cell-based. The protocol:
The compounds according to the invention were the subject of pharmacological tests for determining the activity with respect to human cannabinoid CB1-type receptors. The efficacy of the compounds of formula (I) was determined in a functional test which measures cannabinoid CB1 receptor activity (intracellular cyclic AMP test). The test for detecting intracellular cyclic AMP in U373MG cells naturally expressing the human CB1 receptor was carried out as described in the following reference: Bouaboula et al., 1995, J. Biol. Chem. 270:13973-13980. The HTRF cAMP Dynamic Kit from CisBio was used to quantify the intracellular cyclic AMP. In this test, the IC50 values are between 0.001 μM and 2 μM.
(In general: In TR-FRET formats the signal depends on donor and acceptor labels being close together.)

The target of series [2] is T2, cannabinoid CB1 receptor (Mus musculus, UniProt P47746).
T2 construct: from tissue; host or cells: whole animal (mice; male CD1 mice in the gastrointestinal transit model)
T2 sequence (P47746 whole entry): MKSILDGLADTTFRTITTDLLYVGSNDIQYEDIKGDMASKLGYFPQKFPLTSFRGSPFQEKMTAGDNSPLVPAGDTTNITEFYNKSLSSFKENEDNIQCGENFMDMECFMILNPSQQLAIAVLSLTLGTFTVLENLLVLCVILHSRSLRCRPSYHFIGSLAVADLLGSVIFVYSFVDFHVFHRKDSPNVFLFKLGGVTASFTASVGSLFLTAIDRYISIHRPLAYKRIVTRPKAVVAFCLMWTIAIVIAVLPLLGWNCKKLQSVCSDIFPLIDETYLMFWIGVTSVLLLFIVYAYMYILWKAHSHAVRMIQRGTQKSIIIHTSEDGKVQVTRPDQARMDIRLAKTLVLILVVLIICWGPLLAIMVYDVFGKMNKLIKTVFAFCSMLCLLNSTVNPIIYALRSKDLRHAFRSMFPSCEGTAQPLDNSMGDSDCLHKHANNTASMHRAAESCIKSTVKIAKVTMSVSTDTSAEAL
Nature of the series: model of inhibition of gastrointestinal transit induced by racemic CP55,940 in mice. It counts as in vivo. The note with it: 1 mg/kg per os; 3 hours after administration of the product; CP55,940 0.15 mg/kg ip; male CD1 mice. As to the method: The antagonistic activity of the compounds was also shown by means of the model of inhibition of gastrointestinal transit induced by racemic CP55,940 (1RS,3RS,4RS-3-[hydroxy-2-(1,1-dimethylheptyl)phenyl]-4-(3-hydroxypropyl)cyclohexan-1-ol) in mice, according to the method described by Rinaldi-Carmona et al., J. Pharmacol, Exp. Ther. 2004, 310, 905-914. Briefly, male CD1 mice receive the test product per os 30 minutes or 2 hours before administration of the racemic CP55,940 agonist (1RS,3RS,4RS-3-[hydroxy-2-(1,1-dimethylheptyl)phenyl]-4-(3-hydroxypropyl)cyclohexan-1-ol) (0.15 mg/kg ip in 10% Cremophor). After a further 30 minutes, the animals receive a charcoal bolus po. Thirty minutes later, the animals are euthanized (CO2/O2) and the intestine is dissected. The progression of the charcoal bolus in the intestine is expressed as percentage of the total length of the intestine.

[3] abbreviates: U373MG cells naturally expressing the human CB1 receptor, intracellular cyclic AMP, read-out: IC50.

T1 sequence (P21554 whole entry): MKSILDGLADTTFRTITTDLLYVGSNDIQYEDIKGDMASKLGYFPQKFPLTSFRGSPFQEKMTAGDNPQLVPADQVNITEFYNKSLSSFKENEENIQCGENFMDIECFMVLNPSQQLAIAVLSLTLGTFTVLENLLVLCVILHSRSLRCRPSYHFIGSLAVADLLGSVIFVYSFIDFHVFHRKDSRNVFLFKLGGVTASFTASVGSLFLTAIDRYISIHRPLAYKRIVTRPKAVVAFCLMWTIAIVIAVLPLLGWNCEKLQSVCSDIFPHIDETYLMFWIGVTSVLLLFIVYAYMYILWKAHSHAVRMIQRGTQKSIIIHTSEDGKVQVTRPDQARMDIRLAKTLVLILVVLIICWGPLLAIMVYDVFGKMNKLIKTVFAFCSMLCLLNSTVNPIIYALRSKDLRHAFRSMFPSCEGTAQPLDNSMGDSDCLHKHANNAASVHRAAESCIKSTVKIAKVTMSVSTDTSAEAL

Turning to `CS(=O)(=O)N(c1cccc(C(=O)Nc2nnc(C3CC3)s2)c1)C1CN(C(c2ccc(Cl)cc2)c2ccc(Cl)cc2)C1` [Compound 6, 3-[{1-[bis(4-chlorophenyl)methyl]azetidin-3-yl}(methylsulphonyl)amino]-N-(5-cyclopropyl-1,3,4-thiadiazol-2-yl)benzamide], the melting point stood at 226 °C.

In series [1], `CS(=O)(=O)N(c1cc(F)cc(C(=O)Nc2cc(C#N)ccn2)c1)C1CN(C(c2ccc(Cl)cc2)c2ccc(Cl)cc2)C1` [Compound 34] returned an IC50 of 20 nM. Moreover, in series [2], the percentages of inhibition is on record as 46%.

Take `CS(=O)(=O)N(c1cc(F)cc(C(=O)Nc2ccccn2)c1)C1CN(C(c2ccc(Cl)cc2)c2ccc(Cl)cc2)C1` [Compound 18, 3-[{1-[bis(4-chlorophenyl)methyl]azetidin-3-yl}(methylsulphonyl)amino]-5-fluoro-N-(pyridin-2-yl)benzamide]: the IC50 in series [1] (setting [3]) is 6 nM.

For `CS(=O)(=O)N(c1cccc(C(=O)Nc2ncccn2)c1)C1CN(C(c2ccc(Cl)cc2)c2ccc(Cl)cc2)C1` [Compound 8, 3-[{1-[bis(4-chlorophenyl)methyl]azetidin-3-yl}(methylsulphonyl)amino]-N-(pyrimidin-2-yl)-benzamide], the melting point is 137 °C.

Molecule `CS(=O)(=O)N(c1cccc(C(=O)Nc2cc(O)ccn2)c1)C1CN(C(c2ccc(Cl)cc2)c2ccc(Cl)cc2)C1` [Compound 11, 3-[{1-[bis(4-chlorophenyl)methyl]azetidin-3-yl}(methylsulphonyl)amino]-N-(4-hydroxypyridin-2-yl)benzamide] displayed a melting point of 208 °C. In series [1] (setting [3]), the IC50 amounted to 170 nM.

As to `CS(=O)(=O)N(c1cccc(C(=O)NCCn2cccn2)c1)C1CN(C(c2ccc(Cl)cc2)c2ccc(Cl)cc2)C1` [Compound 15, 3-[{1-[bis(4-chlorophenyl)methyl]azetidin-3-yl}(methylsulphonyl)amino]-N[2-(1H-pyrazol-1-yl)ethyl]benzamide], the melting point worked out at 264 °C. In series [1] (setting [3]), the IC50 worked out at 134 nM.

Take `CS(=O)(=O)N(c1cccc(C(=O)NCc2cc[nH]n2)c1)C1CN(C(c2ccc(Cl)cc2)c2ccc(Cl)cc2)C1` [Compound 14, 3-[{1-[Bis(4-chlorophenyl)methyl]azetidin-3-yl}(methylsulphonyl)amino]-N-(1H-pyrazol-3-ylmethyl)benzamide]: the melting point worked out at 224 °C.

The molecule `CS(=O)(=O)N(c1cccc(C(=O)Nc2nccs2)c1)C1CN(C(c2ccc(Cl)cc2)c2ccc(Cl)cc2)C1` [Compound 1, 3-[{1-[Bis(4-chlorophenyl)methyl]azetidin-3-yl}(methylsulphonyl)amino]-N-(1,3-thiazol-2-yl)benzamide] showed a melting point of 244 °C.

`CS(=O)(=O)N(c1cccc(C(=O)NCc2nc[nH]n2)c1)C1CN(C(c2ccc(Cl)cc2)c2ccc(Cl)cc2)C1` [Compound 13, 3-[{1-[Bis(4-chlorophenyl)methyl]azetidin-3-yl}(methylsulphonyl)amino]-N-(1H-1,2,4-triazol-3-ylmethyl)benzamide]: the melting point is 210 °C.

In turn, `Cc1ccnc(NC(=O)c2cc(F)cc(N(C3CN(C(c4ccc(Cl)cc4)c4ccc(Cl)cc4)C3)S(C)(=O)=O)c2)c1` [Compound 27, 3-[{1-[bis(4-chlorophenyl)methyl]azetidin-3-yl}(methylsulphonyl)amino]-5-fluoro-N-(4-methylpyridin-2-yl)benzamide] returned a melting point of 184 to 186 °C.

For the molecule `CS(=O)(=O)N(c1cc(F)cc(C(=O)NCc2ccc(=O)[nH]c2)c1)C1CN(C(c2ccc(Cl)cc2)c2ccc(Cl)cc2)C1` [Compound 47], it took 9 nM to reach half-maximal inhibition in series [1] (IC50). The same molecule gave a percentages of inhibition in series [2] of 68%.

Turning to `CS(=O)(=O)N(c1cccc(C(=O)NCCc2ncccn2)c1)C1CN(C(c2ccc(Cl)cc2)c2ccc(Cl)cc2)C1` [Compound 16, 3-[{1-[bis(4-chlorophenyl)methyl]azetidin-3-yl}(methylsulphonyl)amino]-N-[2-(pyrimidin-2-yl)-ethyl]benzamide], the melting point was 120 °C.

Molecule `CS(=O)(=O)N(c1cccc(C(=O)Nc2n[nH]cc2C(N)=O)c1)C1CN(C(c2ccc(Cl)cc2)c2ccc(Cl)cc2)C1` [Compound 12, 3-[({3-[{1-[bis(4-chlorophenyl)methyl]azetidin-3-yl}(methylsulphonyl)amino]phenyl}carbonyl)-amino]-1H-pyrazole-4-carboxamide] displayed a melting point of 174 °C.

With `Cc1cc(NC(=O)c2cc(F)cc(N(C3CN(C(c4ccc(Cl)cc4)c4ccc(Cl)cc4)C3)S(C)(=O)=O)c2)no1` [Compound 21, 3-[{1-[Bis(4-chlorophenyl)methyl]azetidin-3-yl)(methylsulphonyl)amino]-5-fluoro-N-(5-methylisoxazol-3-yl)benzamide], the melting point lay in the range of 222 to 224 °C.

`CS(=O)(=O)N(c1cccc(C(=O)NCc2nn[nH]n2)c1)C1CN(C(c2ccc(Cl)cc2)c2ccc(Cl)cc2)C1` [Compound 33, 3-[{1-[bis(4-chlorophenyl)methyl]azetidin-3-yl}(methylsulphonyl)amino]-N-(2H-tetrazol-5-ylmethyl)benzamide] showed a melting point of 124 °C.

Turning to `CS(=O)(=O)N(c1cccc(C(=O)NCc2cc(O)no2)c1)C1CN(C(c2ccc(Cl)cc2)c2ccc(Cl)cc2)C1`, the melting point amounted to 209 °C.

Take `Cc1cc(NC(=O)c2cc(F)cc(N(C3CN(C(c4ccc(Cl)cc4)c4ccc(Cl)cc4)C3)S(C)(=O)=O)c2)on1` [Compound 26, 3-[{1-[bis(4-chlorophenyl)methyl]azetidin-3-yl}(methylsulphonyl)amino]-5-fluoro-N-(3-methylisoxazol-5-yl)benzamide]: the melting point lay in the range of 224 to 226 °C.

As to `CS(=O)(=O)N(c1cccc(C(=O)Nc2nc(N)n[nH]2)c1)C1CN(C(c2ccc(Cl)cc2)c2ccc(Cl)cc2)C1` [Compound 31, N-(3-amino-1H-1,2,4-triazol-5-yl)-3-[{1-[bis(4-chlorophenyl)methyl]azetidin-3-yl}(methylsulphonyl)amino]benzamide], the melting point is 222 °C.

For the molecule `Cn1cc(O)nc1NC(=O)c1cccc(N(C2CN(C(c3ccc(Cl)cc3)c3ccc(Cl)cc3)C2)S(C)(=O)=O)c1` [Compound 4, 3-[{1-[bis(4-chlorophenyl)methyl]azetidin-3-yl}(methylsulphonyl)amino]-N-(4-hydroxy-1-methyl-1H-imidazol-2-yl)benzamide], the melting point is 134 °C.

As to `CS(=O)(=O)N(c1cc(F)cc(C(=O)Nc2cnoc2)c1)C1CN(C(c2ccc(Cl)cc2)c2ccc(Cl)cc2)C1` [Compound 24, 3-[{1-[bis(4-chlorophenyl)methyl]azetidin-3-yl}(methylsulphonyl)amino]-5-fluoro-N-(isoxazol-4-yl)benzamide], the melting point fell in the range of 234 to 236 °C.

For `Cc1cccc(NC(=O)c2cc(F)cc(N(C3CN(C(c4ccc(Cl)cc4)c4ccc(Cl)cc4)C3)S(C)(=O)=O)c2)n1` [Compound 28, 3-[{1-[bis(4-chlorophenyl)methyl]azetidin-3-yl}(methylsulphonyl)amino]-5-fluoro-N-(6-methylpyridin-2-yl)benzamide], the melting point lay in the range of 176 to 178 °C.

Molecule `CS(=O)(=O)N(c1cc(F)cc(C(=O)Nc2ccon2)c1)C1CN(C(c2ccc(Cl)cc2)c2ccc(Cl)cc2)C1` [Compound 17, 3-[{1-[bis(4-chlorophenyl)methyl]azetidin-3-yl}(methylsulphonyl)amino]-5-fluoro-N-(isoxazol-3-yl)benzamide] registered a melting point of 219 to 221 °C.

`N#Cc1ccnc(NC(=O)c2cc(F)cc(NS(=O)(=O)CC3CN(C(c4ccc(Cl)cc4)c4ccc(Cl)cc4)C3)c2)c1` [Compound 34, 3-({1-[bis(4-chlorophenyl)methyl]azetidin-3-yl}methylsulphonylamino)-N-(4-cyanopyridin-2-yl)-5-fluorobenzamide] returned a melting point of 165 °C.

Turning to `CS(=O)(=O)N(c1cccc(C(=O)Nc2ccc(N)nc2)c1)C1CN(C(c2ccc(Cl)cc2)c2ccc(Cl)cc2)C1` [Compound 30, N-(6-aminopyridin-3-yl)-3-[{1-[bis(4-chlorophenyl)methyl]azetidin-3-yl}(methylsulphonyl)amino]benzamide], the melting point is 210 °C.

As for `CS(=O)(=O)N(c1cccc(C(=O)Nc2nonc2N)c1)C1CN(C(c2ccc(Cl)cc2)c2ccc(Cl)cc2)C1` [Compound 10, N-(4-amino-1,2,5-oxadiazol-3-yl)-3-[{1-[bis(4-chlorophenyl)methyl]azetidin-3-yl}(methylsulphonyl)amino]benzamide], the melting point was 255 °C. Also, in series [1] (setting [3]), the IC50 was determined as 40 nM.

As for `CS(=O)(=O)N(c1cccc(C(=O)Nc2cc[nH]n2)c1)C1CN(C(c2ccc(Cl)cc2)c2ccc(Cl)cc2)C1` [Compound 9, 3-[{1-[bis(4-chlorophenyl)methyl]azetidin-3-yl}(methylsulphonyl)amino]-N-(1H-pyrazol-3-yl)-benzamide], the melting point worked out at 150 °C.

For orientation: melting point means the temperature of the solid-liquid transition. For orientation: IC50 means the point on the concentration scale where inhibition reaches its midpoint.
